Reference: PubChem BioAssay AID330 (DTP/NCI, 2004)
Values joined by “and” are separate entries in the source; they are usually repeats but may differ in a detail not shown here. Equal values may be shown once. Inconclusive results and toxic doses are left out.

Tested on: P388 leukemia ip, CD2F1 mice, survival T/C
Assay: NCI In Vivo Anticancer Drug Screen. Data for tumor model P388 Leukemia (intraperitoneal) in CD2F1 (CDF1) mice
Details: endpoint: median survival time, higher = longer survival
How it was run: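 Mice carrying the transplanted tumor received test compound or vehicle. Survival was recorded in each group, and the value is the treated-group measurement divided by that of the vehicle-treated control group.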

[1] = dose: 25.0 mg/kg/injection, schedule: Q01DX005 (ip), vehicle: Klucel (hydroxypropylcellulose) (HPC)
[2] = dose: 50.0 mg/kg/injection, schedule: Q01DX005 (ip), vehicle: Klucel (hydroxypropylcellulose) (HPC)
[3] = dose: 100.0 mg/kg/injection, schedule: Q01DX005 (ip), vehicle: Klucel (hydroxypropylcellulose) (HPC)
[4] = dose: 200.0 mg/kg/injection, schedule: Q01DX005 (ip), vehicle: Klucel (hydroxypropylcellulose) (HPC)
[5] = dose: 50.0 mg/kg/injection, schedule: Q01DX009 (ip), vehicle: saline with Tween-80
[6] = dose: 100.0 mg/kg/injection, schedule: Q01DX009 (ip), vehicle: saline with Tween-80
[7] = dose: 200.0 mg/kg/injection, schedule: Q01DX009 (ip), vehicle: saline with Tween-80
[8] = dose: 50.0 mg/kg/injection, schedule: Q01DX005 (ip), vehicle: saline with Tween-80
[9] = dose: 100.0 mg/kg/injection, schedule: Q01DX005 (ip), vehicle: saline with Tween-80
[10] = dose: 50.0 mg/kg/injection, schedule: Q01DX009 (ip), vehicle: Klucel (hydroxypropylcellulose) (HPC)
[11] = dose: 100.0 mg/kg/injection, schedule: Q01DX009 (ip), vehicle: Klucel (hydroxypropylcellulose) (HPC)
[12] = dose: 200.0 mg/kg/injection, schedule: Q01DX009 (ip), vehicle: Klucel (hydroxypropylcellulose) (HPC)
[13] = dose: 50.0 mg/kg/injection, schedule: Q01DX009 (ip), vehicle: saline
[14] = dose: 100.0 mg/kg/injection, schedule: Q01DX009 (ip), vehicle: saline
[15] = dose: 200.0 mg/kg/injection, schedule: Q01DX009 (ip), vehicle: saline
[16] = dose: 25.0 mg/kg/injection, schedule: Q01DX005 (ip), vehicle: saline with Tween-80

O=c1ccn(C2OC(COC(c3ccccc3)(c3ccccc3)c3ccccc3)C(O)C2OC(c2ccccc2)(c2ccccc2)c2ccccc2)c(=O)[nH]1 (stereo unspecified)
T/C [1]: 97 % of control | T/C [2]: 99 % of control | T/C [3]: 94 % of control | T/C [4]: 93 % of control

C=C1C(=O)OC2C1C(OC(=O)/C(=C/C)CO)CC(C)(O)C1CC=C(C)C21 (stereo unspecified)
T/C (dose: 11.88 mg/kg/injection, schedule: Q01DX005 (ip), vehicle: Klucel (hydroxypropylcellulose) (HPC)): 109 % of control | T/C (dose: 23.75 mg/kg/injection, schedule: Q01DX005 (ip), vehicle: Klucel (hydroxypropylcellulose) (HPC)): 109 % of control | T/C (dose: 47.5 mg/kg/injection, schedule: Q01DX005 (ip), vehicle: Klucel (hydroxypropylcellulose) (HPC)): 102 % of control

Cc1nn(C(=O)c2c(-c3ccccc3)noc2C)c(C)c1N=Nc1cc(C(F)(F)F)cc(C(F)(F)F)c1
T/C [5]: 87 % of control | T/C [6]: 87 % of control | T/C [7]: 97 % of control

CCCC#CC(=O)OC
T/C [5]: 97 % of control | T/C [6]: 100 % of control | T/C [7]: 106 % of control

O=S(=O)(c1ccccc1)N1CCN(S(=O)(=O)c2ccccc2)COC1
T/C [8]: 103 % of control | T/C [9]: 101 % of control | T/C (dose: 200.0 mg/kg/injection, schedule: Q01DX005 (ip), vehicle: saline with Tween-80): 102 % of control

CCOC(=O)N1Cc2cc3ncccc3nc2C1
T/C [1]: 111 % of control | T/C [2]: 100 % of control

Cc1nc2c(cnn2C)c(=O)n1Cc1ccccc1
T/C [2]: 104 % of control | T/C [3]: 97 % of control | T/C [4]: 103 % of control

O=C1c2ccccc2CN1Cc1ccc(Cl)c(Cl)c1
T/C [5]: 96 % of control | T/C [6]: 89 % of control | T/C [7]: 91 % of control

C1=CCC(C(Nc2nncs2)Nc2nncs2)CC1 (stereo unspecified)
T/C (dose: 60.0 mg/kg/injection, schedule: Q01DX005 (ip), vehicle: saline with Tween-80): 107 % of control | T/C (dose: 240.0 mg/kg/injection, schedule: Q01DX005 (ip), vehicle: saline with Tween-80): 108 % of control

Cc1c(-c2ccccc2)n[nH]c1-c1[nH]nc(-c2ccccc2)c1C
T/C (dose: 60.0 mg/kg/injection, schedule: Q01DX005 (ip), vehicle: Klucel (hydroxypropylcellulose) (HPC)): 93 % of control | T/C (dose: 120.0 mg/kg/injection, schedule: Q01DX005 (ip), vehicle: Klucel (hydroxypropylcellulose) (HPC)): 94 % of control | T/C (dose: 240.0 mg/kg/injection, schedule: Q01DX005 (ip), vehicle: Klucel (hydroxypropylcellulose) (HPC)): 93 % of control

O=c1[nH]c2ccc(Cl)cc2c2ccccc12
T/C [10]: 101 % of control | T/C [11]: 100 % of control | T/C [12]: 105 % of control

COC1(C2COc3cc(OCc4ccccc4)ccc3C2=O)C=C2OCOC2=CC1=O (stereo unspecified)
T/C (dose: 12.5 mg/kg/injection, schedule: Q01DX005 (ip), vehicle: Klucel (hydroxypropylcellulose) (HPC)): 99 % of control | T/C [1]: 96 % of control | T/C [2]: 89 % of control

NC1C(=O)OC(C(O)CO)C1O (stereo unspecified)
T/C (dose: 12.5 mg/kg/injection, schedule: Q01DX009 (ip), vehicle: water): 100 % of control | T/C (dose: 25.0 mg/kg/injection, schedule: Q01DX009 (ip), vehicle: water): 100 % of control | T/C (dose: 50.0 mg/kg/injection, schedule: Q01DX009 (ip), vehicle: water): 104 % of control | T/C (dose: 100.0 mg/kg/injection, schedule: Q01DX009 (ip), vehicle: water): 98 % of control | T/C (dose: 200.0 mg/kg/injection, schedule: Q01DX009 (ip), vehicle: water): 97 % of control

CC(c1ccccc1)C(OC(=O)c1ccc([N+](=O)[O-])cc1)c1ccccc1 (stereo unspecified)
T/C (dose: 12.5 mg/kg/injection, schedule: Q01DX009 (ip), vehicle: saline with Tween-80): 100 % of control | T/C (dose: 25.0 mg/kg/injection, schedule: Q01DX009 (ip), vehicle: saline with Tween-80): 100 % of control | T/C [5]: 90 % of control

CN(c1ccccc1)c1ccc([N+](=O)[O-])c2no[n+]([O-])c12
T/C (dose: 7.5 mg/kg/injection, schedule: Q01DX009 (ip), vehicle: suspension in saline): 92 % of control and 97 % of control | T/C (dose: 15.0 mg/kg/injection, schedule: Q01DX009 (ip), vehicle: suspension in saline): 92 % of control and 96 % of control | T/C (dose: 30.0 mg/kg/injection, schedule: Q01DX009 (ip), vehicle: suspension in saline): 103 % of control and 90 % of control | T/C (dose: 60.0 mg/kg/injection, schedule: Q01DX009 (ip), vehicle: suspension in saline): 110 % of control and 115 % of control

CC/C(=N\NS(=O)(=O)c1ccc(C)cc1)c1ccc(Br)c(Br)c1
T/C [13]: 96 % of control | T/C [14]: 100 % of control | T/C [15]: 92 % of control

CC1OC(OC2C(O)C(OCCc3ccc(O)c(O)c3)OC(CO)C2OC(=O)/C=C/c2ccc(O)c(O)c2)C(O)C(O)C1O (stereo unspecified)
T/C (dose: 4.75 mg/kg/injection, schedule: Q01DX005 (ip), vehicle: Klucel (hydroxypropylcellulose) (HPC)): 106 % of control | T/C (dose: 9.5 mg/kg/injection, schedule: Q01DX005 (ip), vehicle: Klucel (hydroxypropylcellulose) (HPC)): 100 % of control | T/C (dose: 19.0 mg/kg/injection, schedule: Q01DX005 (ip), vehicle: Klucel (hydroxypropylcellulose) (HPC)): 100 % of control | T/C (dose: 38.0 mg/kg/injection, schedule: Q01DX005 (ip), vehicle: Klucel (hydroxypropylcellulose) (HPC)): 100 % of control

C[O][Sn]([O][Sn]([Cl])([c]1ccccc1)[c]1ccccc1)([c]1ccccc1)[c]1ccccc1
T/C (dose: 50.0 mg/kg/injection, schedule: Q04DX003 (ip), vehicle: saline): 177 % of control | T/C (dose: 100.0 mg/kg/injection, schedule: Q04DX003 (ip), vehicle: suspension in saline): 106 % of control

COC(=O)CCCN1CC2C=C(C#N)C1C(C(=O)OC)C2 (stereo unspecified)
T/C (dose: 60.0 mg/kg/injection, schedule: Q01DX005 (ip), vehicle: saline): 98 % of control | T/C (dose: 120.0 mg/kg/injection, schedule: Q01DX005 (ip), vehicle: saline): 96 % of control

Cc1ccc2c(c1)nc(Cl)n2Cc1ccccc1
T/C [2]: 100 % of control | T/C [3]: 102 % of control | T/C [4]: 102 % of control

Cc1cc(=O)[nH]c2c(C)c(N)ccc12
T/C [16]: 95 % of control | T/C [8]: 104 % of control | T/C [9]: 95 % of control

S=C(Nc1ccc(N=Nc2ccccc2)cc1)SCc1ccc(Cl)cc1
T/C [13]: 97 % of control | T/C [14]: 103 % of control | T/C [15]: 100 % of control | T/C (dose: 200.0 mg/kg/injection, schedule: Q01DX009 (ip), vehicle: suspension in saline): 93 % of control

COCCC(=O)NC1CCCC[CH]1[Hg][Cl] (stereo unspecified)
T/C (dose: 25.0 mg/kg/injection, schedule: Q04DX003 (ip), vehicle: Klucel (hydroxypropylcellulose) (HPC)): 97 % of control

Cc1nonc1-c1ccc2c(c1)OCO2
T/C (dose: 25.0 mg/kg/injection, schedule: Q01DX009 (ip), vehicle: Klucel (hydroxypropylcellulose) (HPC)): 110 % of control | T/C [10]: 105 % of control | T/C [11]: 106 % of control | T/C [12]: 105 % of control

CCCCN(CCCC)CC(O)c1cc(-c2ccc(Cl)cc2)nc2c(Cl)cc(Cl)cc12 (stereo unspecified)
T/C (dose: 60.0 mg/kg/injection, schedule: Q01DX005 (ip), vehicle: Klucel + Tween-80): 100 % of control | T/C (dose: 120.0 mg/kg/injection, schedule: Q01DX005 (ip), vehicle: Klucel + Tween-80): 88 % of control

CC(C)CCCC(C)C1CCC2C3CCC4N(CCCl)CCCC4(C)C3CCC12C (stereo unspecified)
T/C (dose: 25.0 mg/kg/injection, schedule: Q01DX001 (ip), vehicle: saline): 100 % of control | T/C (dose: 50.0 mg/kg/injection, schedule: Q01DX001 (ip), vehicle: saline): 99 % of control | T/C (dose: 100.0 mg/kg/injection, schedule: Q01DX001 (ip), vehicle: saline): 94 % of control

Cc1nc(N)nc2c1CCC(O)S2 (stereo unspecified)
T/C (dose: 50.0 mg/kg/injection, schedule: Q01DX005 (ip), vehicle: saline): 98 % of control | T/C (dose: 100.0 mg/kg/injection, schedule: Q01DX005 (ip), vehicle: saline): 102 % of control | T/C (dose: 200.0 mg/kg/injection, schedule: Q01DX005 (ip), vehicle: saline): 96 % of control

CC1CCCC(C)N1Cc1ccccc1 (stereo unspecified)
T/C [16]: 93 % of control | T/C [8]: 93 % of control

C=C(C)C(=O)O[C@H]1C[C@@]2(C)OC(=CC2=O)/C(CO)=C\[C@H]2OC(=O)C(=C)[C@H]12
T/C (dose: 1.56 mg/kg/injection, schedule: Q01DX009 (ip), vehicle: Klucel (hydroxypropylcellulose) (HPC)): 108 % of control | T/C (dose: 3.13 mg/kg/injection, schedule: Q01DX009 (ip), vehicle: Klucel (hydroxypropylcellulose) (HPC)): 106 % of control | T/C (dose: 6.25 mg/kg/injection, schedule: Q01DX009 (ip), vehicle: Klucel (hydroxypropylcellulose) (HPC)): 117 % of control
